Results: EP2757103B1, “PYRROLIDINE-3-YLACETIC ACID DERIVATIVE” (Eisai R&D Management Co., Ltd., priority 2011, dated 2013)

target: T1, CX3CR1 (Homo sapiens, UniProt P49238); assay: Inhibition of cell migration in fractalkine-induced chemotaxis assay; type: cell-based; conditions: fractalkine-induced (0.3 nM) migration of CX3CR1-expressing B300 cells; preincubated with test compound for 30 minutes; Transwell, 3.5 hours at 37°C
T1 construct: expressed in transfected cells; host or cells: B300 cells
T1 sequence (P49238 1-355): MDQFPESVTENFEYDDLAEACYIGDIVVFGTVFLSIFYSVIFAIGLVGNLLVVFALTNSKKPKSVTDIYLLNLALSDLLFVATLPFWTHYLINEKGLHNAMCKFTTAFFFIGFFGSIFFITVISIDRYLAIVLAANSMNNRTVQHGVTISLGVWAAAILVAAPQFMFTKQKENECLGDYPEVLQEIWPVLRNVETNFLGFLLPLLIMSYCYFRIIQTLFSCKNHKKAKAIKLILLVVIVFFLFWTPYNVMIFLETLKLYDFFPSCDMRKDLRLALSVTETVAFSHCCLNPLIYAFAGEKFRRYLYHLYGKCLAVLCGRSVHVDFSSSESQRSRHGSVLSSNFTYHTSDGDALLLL
Method: The inhibitory effects of the example compounds on fractalkine-induced cell migration were examined using CX3CR1-transfected B300 cells
After equilibrating the Transwell plate (24-well clusters, pore size: 5 µm, manufactured by Corning Incorporated), a fractalkine solution (0.3 nM, manufactured by R&D Systems, Inc.) was added to the lower wells. CX3CR1-expressing B300 cells which were preincubated with the test compound (0.001, 0.003, 0.01 or 0.03 µM) for 30 minutes were placed in the upper layer wells, followed by incubation under the condition of 5% CO2 for 3.5 hours at 37°C. The number of cells migrated to the lower wells was evaluated using CellTiter (manufactured by Promega Corporation).
The inhibitory rate of the test compound on fractalkine-induced cell migration was calculated by the following formula, where [A] is the number of migrated cells in the presence of both fractalkine and the test compound, [B] is the number of migrated cells in the presence of fractalkine and in the absence of the test compound, and [C] is the number of migrated cells in the absence of both fractalkine and the test compound; the 50% inhibitory concentration (IC50) was calculated based on the inhibitory rate. Inhibitory rate (%) = [1-{(A-C)/(B-C)}] × 100

Row | Structure (SMILES) | IC50
1 | CCCC(F)CN1CCC(NC(=O)[C@]2(CC(=O)O)CN(Cc3c(Cl)cccc3C(F)(F)F)C[C@@H]2C)CC1 (stereo partly drawn) [Example 1, 2-[(3S,4R)-1-{[2-chloro-6-(trifluoromethyl)phenyl]methyl}-3-{[1-(2-fluoropentyl)piperidin-4-yl]carbamoyl}-4-methylpyrrolidin-3-yl]acetic acid] | 13 nM
2 | C[C@H]1CN(Cc2c(Cl)cccc2C(F)(F)F)C[C@@]1(CC(=O)O)C(=O)NC1CCN(CC2=CCCCC2)CC1 [Example 3, 2-[(3S,4R)-1-{[2-Chloro-6-(trifluoromethyl)phenyl]methyl}-3-{[1-(cyclohex-1-en-1-ylmethyl)piperidin-4-yl]carbamoyl}-4-methylpyrrolidin-3-yl]acetic acid] | 4 nM
3 | Cc1cccc(Cl)c1CN1C[C@H](C)[C@](CC(=O)O)(C(=O)NC2CCN(CC3=CCCCC3)CC2)C1 [Example 6, 2-[(3S,4R)-1-[(2-Chloro-6-methylphenyl)methyl]-3-{[1-(cyclohex-1-en-1-ylmethyl)piperidin-4-yl]carbamoyl}-4-methylpyrrolidin-3-yl]acetic acid] | 11 nM
4 | C[C@H]1CN(Cc2c(Cl)cccc2C(F)(F)F)C[C@@]1(CC(=O)O)C(=O)NC1CCN(CC2=CCCC2)CC1 [Example 7, 2-[(3S,4R)-1-{[2-Chloro-6-(trifluoromethyl)phenyl]methyl}-3-{[1-(cyclopent-1-en-1-ylmethyl)piperidin-4-yl]carbamoyl}-4-methylpyrrolidin-3-yl]acetic acid] | 5 nM

More lines, in order of falling IC50, values ahead:

Row | IC50 | Structure (SMILES)
5 | 21 nM | C[C@H]1CN(Cc2c(Cl)cccc2Cl)C[C@@]1(CC(=O)O)C(=O)NC1CCN(CC2CCC(F)(F)CC2)CC1 [Example 2, 2-[(3S,4R)-1-[(2,6-Dichlorophenyl)methyl]-3-({1-[(4,4-difluorocyclohexyl)methyl]piperidin-4-yl}carbamoyl)-4-methylpyrrolidin-3-yl]acetic acid]
6 | 16 nM | C[C@H]1CN(Cc2c(Cl)cccc2Cl)C[C@@]1(CC(=O)O)C(=O)N[C@H]1CCN(CC2=CCCCC2)C1 [Example 9, 2-[(3S,4R)-3-{[(3S)-1-(Cyclohex-1-en-1-ylmethyl)pyrrolidin-3-yl]carbamoyl}-1-[(2,6-dichlorophenyl)methyl]-4-methylpyrrolidin-3-yl]acetic acid]
7 | 16 nM | C[C@H]1CN(Cc2c(Cl)cccc2C(F)F)C[C@@]1(CC(=O)O)C(=O)NC1CCN(CC2=CCCC2)CC1 [Example 13, 2-[(3S,4R)-1-{[2-Chloro-6-(difluoromethyl)phenyl]methyl}-3-{[1-(cyclopent-1-en-1-ylmethyl)piperidin-4-yl]carbamoyl}-4-methylpyrrolidin-3-yl]acetic acid]
8 | 14 nM | CCCCCCN1CCC(NC(=O)[C@]2(CC(=O)O)CN(Cc3c(Cl)cccc3C(F)F)C[C@@H]2C)CC1 [Example 10, 2-[(3S,4R)-1-{[2-Chloro-6-(difluoromethyl)phenyl]methyl}-3-[(1-hexylpiperidin-4-yl)carbamoyl]-4-methylpyrrolidin-3-yl]acetic acid]
9 | 12 nM | C[C@H]1CN(Cc2c(Cl)cccc2C(F)F)C[C@@]1(CC(=O)O)C(=O)NC1CCN(CC2CCCCC2)CC1 [Example 14, 2-[(3S,4R)-1-{[2-Chloro-6-(difluoromethyl)phenyl]methyl}-3-{[1-(cyclohexylmethyl)piperidin-4-yl]carbamoyl}-4-methylpyrrolidin-3-yl]acetic acid]
10 | 6 nM | C[C@H]1CN(Cc2c(Cl)cccc2C(F)F)C[C@@]1(CC(=O)O)C(=O)NC1CCN(CC2=CCCCC2)CC1 [Example 12, 2-[(3S,4R)-1-{[2-Chloro-6-(difluoromethyl)phenyl]methyl}-3-{[1-(cyclohex-1-en-1-ylmethyl)piperidin-4-yl]carbamoyl}-4-methylpyrrolidin-3-yl]acetic acid]
